Data set [1] has as its system C. albicans ATCC 10231. The experiment in a line: Microbicidal activity (MMC). It counts as cell-based. To be noted: DMSO control 5. As to the method:
(§1) For the evaluation of antimicrobial activity, the following reference strains were used: S. aureus ATCC 25923, E. faecalis ATCC 29212, E. coli ATCC 25922, P. aeruginosa ATCC 27853 and C. albicans ATCC 10231. To determine the MMCs, 5 μL of culture was taken from each well and distributed on solid medium. The plates were incubated for 20–24 h at 37 °C. The lowest concentration at which no microbial growth was observed was considered MMC.

For data set [2], the system named is S. aureus ATCC 25923. Briefly: Microbicidal activity (MMC). To be noted: DMSO control 5. It is filed as cell-based. As to the method:
as §1

For data set [3], the system named is P. aeruginosa ATCC 27853. The experiment in a line: Microbicidal activity (MMC). To be noted: DMSO control 2.5. It counts as cell-based. As to the method:
as §1

Data set [4] deals with E. faecalis ATCC 29212. The experiment in a line: Microbicidal activity (MMC). It is filed as cell-based. To be noted: DMSO control >5. How it is done:
as §1

Data set [5] in a line: Total antioxidant capacity (TAC), DPPH method. To be noted: 30 min, 517 nm, compound stock 1 mg/mL in methanol, reference ascorbic acid TAC = 100%. As to the method:
The total antioxidant capacity (TAC) was evaluated using diphenyl-1-picrylhydrazyl free radical (DPPH) method. The TAC value was determined in relation to the antioxidant capacity of the reference (ascorbic acid, TAC = 100%). […] The maximum value was recorded for 1c (~45%), followed by 1f and 1a (~43%), while the minimum for 1e (~19%).
In this study, the TAC values were obtained using the most-known DPPH method, in which the intense violet colour of the free radical solution is decreasing. Stock solutions of compounds 1a–1f and 2 were prepared in absolute methanol at a concentration of 1 mg/mL. A stock solution of 2,2-diphenyl-1-picrylhydrazyl free radical was obtained in the same solvent, at a concentration of 2 × 10^−4 M. To 1.8 mL of DPPH solution was added 0.2 mL of each solution of the compounds 1a–1f and 2 and the mixture was left in the dark for 30 min, followed by measurements of the absorbance at 517 nm. The following equation was used to calculate TAC: TAC%=Abs0 min−Abs30 min/Abs0min·100 where Abs0 min refers to the initial absorbance of the DPPH free radical solution, and Abs 30 min refers to the absorbance of the solution of DPPH and the added compound after 30 min. Ascorbic acid was used as a reference.
On the technique in general: Loss of DPPH colour is used to gauge radical scavenging.

In data set [6] the test system is C. albicans ATCC 10231. The experiment in a line: Quantitative antimicrobial activity, serial binary microdilution (MIC, IC50). To be noted: Candida albicans, ATCC10231, 24 h, 37 °C, DMSO control 1.25. It is filed as cell-based. As to the method:
(§2) For the evaluation of antimicrobial activity, the following reference strains were used: S. aureus ATCC 25923, E. faecalis ATCC 29212, E. coli ATCC 25922, P. aeruginosa ATCC 27853 and C. albicans ATCC 10231.
Quantitative analysis was performed using the method of serial binary microdilutions in liquid medium (Tryptone Soy Broth for bacteria and Sabouraud Broth for yeasts) in plates with 96 wells. Stock solutions of 10 mg/mL were made in DMSO, and the range of concentrations tested for each compound was 5000–0.16 μg/mL. Simultaneously, the DMSO control was carried out under the same working conditions. Each well was inoculated with 10 μL of microbial suspension, adjusted to a density of 1.5 × 10^8 CFU/mL prepared from 18 to 24 h cultures. After 24 h of incubation at 37 °C, microbial growth and multiplication were evaluated both macroscopically and spectrophotometrically at 620 nm to establish the MIC values. […] Blanks were made for each sample concentration, and the formula was applied: Microbial viability(%)=Asample−Ablank/Astrain control−Asterility control·100
Background: In broth dilution the organism is exposed to a series of concentrations in liquid medium.

A further data set relates to E. coli ATCC 25922. Briefly: Microbial adhesion, crystal violet (MICMA). It counts as cell-based. To be noted: DMSO control 5. As to the method: as §2
(§3) Following quantitative analysis of antimicrobial activity, microbial adhesion was evaluated after methanol fixation and violet crystal staining (0.1%). The absorbance of the adhered biomass colored with violet crystal and resuspended in 33% acetic acid was measured at 490 nm.

Data set [7] relates to C. albicans ATCC 10231. Briefly: Microbial adhesion, crystal violet (MICMA). It is filed as cell-based. To be noted: DMSO control 1.25. How it is done:
as §2, §3

The subject of data set [8] is S. aureus ATCC 25923. Briefly: Microbial adhesion, crystal violet (MICMA). To be noted: DMSO control 5. It counts as cell-based. As to the method:
as §2, §3

The subject of data set [9] is P. aeruginosa ATCC 27853. The experiment in a line: Microbial adhesion, crystal violet (MICMA). It counts as cell-based. To be noted: DMSO control 1.25. How it is done:
as §2, §3

Data set [10] concerns E. faecalis ATCC 29212. Briefly: Microbial adhesion, crystal violet (MICMA). It is filed as cell-based. To be noted: DMSO control 2.5. How it is done: as §2, §3
The subject of data set [11] is HT-29 (human colorectal adenocarcinoma). The experiment in a line: Cytotoxicity, MTT assay. It is filed as cell-based. To be noted: 24 h. As to the method:
(§4) For the cytotoxicity screening of the N-acyl-hydrazone derivatives, three cell lines were employed: HT-29 (human colorectal adenocarcinoma), A431 (human epidermoid carcinoma), and VERO (non-tumoral African green monkey kidney epithelial cells). All cell lines were obtained from the American Type Culture Collection (ATCC, Manassas, VA, USA), and maintained in appropriate culture media as follows: HT-29 and A431 cells were cultured in Dulbecco’s Modified Eagle Medium (DMEM), while VERO cells were cultured in Minimum Essential Medium (MEM). Both culture media were supplemented with 10% fetal bovine serum (FBS) and 1% penicillin-streptomycin mix, to formulate the complete culture medium. All cell lines were incubated at 37 °C in a humidified atmosphere containing 5% CO2. […] For the cytotoxicity screening, cells were seeded into sterile 96-well plates at an initial density of 1 × 10^4 cells/well and allowed to adhere for 24 h. Subsequently, cells were treated with increasing concentrations (3.125 to 50 µM) of compounds 1a–1f and 2 for 24 h. In parallel, 5-fluorouracil (5-FU, Sigma Aldrich, St. Louis, MO, USA) was included as a reference drug and tested over the same concentration range under identical experimental conditions. […] For the experimental control, culture medium was refreshed at the time of treatment application. […] Louis, MO, USA). Briefly, the culture media were discarded from each well and replaced with a fresh solution of MTT (1 mg/mL). Plates were incubated for 4 h at 37 °C, and the resulting formazan crystals were solubilized with isopropanol. The absorbance was measured at 550 nm using the FlexStation III multimodal reader (Molecular Devices, San Jose, CA, USA). All experiments were performed in triplicate and repeated in three independent assays. Cell viability was calculated as a percentage relative to the untreated control using the formula Cell Viability (%) = (Abs treated/Abs control) × 100. Data were processed using GraphPad Prism 6.0 and presented as mean ± standard deviation (SD). Statistical analysis was performed using one-way analysis of variance (ANOVA) followed by Dunnett’s post hoc test for comparison with the untreated control group.

Data set [12] concerns A431 (human epidermoid carcinoma). The experiment in a line: Cytotoxicity, MTT assay. To be noted: Homo sapiens. It counts as cell-based. As to the method:
as §4
On the technique in general: Formazan colour is commonly taken as a measure of viable cells.

Each structure is given as a SMILES string. In brackets after ≈: the same amount, converted by molar mass.

What is called MIC is the lowest concentration that inhibits growth of the organism. High values mean a less susceptible organism, low ones a more susceptible organism. Usually viability stands for a read-out of living cells in per cent, often relative to untreated cells. In general, IC50 refers to the concentration that gives 50% inhibition. As to `Cc1nc2ccccc2c(=O)n1CC(=O)N/N=C/c1cc(Br)cc(Br)c1O` [Compound 1b, N′-[(E)-(3,5-bromo-2-hydroxyphenyl)methylidene]-2-(2-methyl-4-oxoquinazolin-3(4H)-yl)acetohydrazide], the “MMC” value was 5 mg/mL with C. albicans ATCC 10231 [1], above 5 mg/mL in the data set with S. aureus ATCC 25923 [2], 5 mg/mL in the data set with P. aeruginosa ATCC 27853 [3] and above 5 mg/mL in the data set on E. faecalis ATCC 29212 [4]. Also, the “TAC (%)” value in [5] turned out to be 38.9%. The molecule further displayed an MIC with C. albicans ATCC 10231 [6] of 625 µg/mL (≈ 1260 µM). Moreover, the “MICMA” value turned out to be 2.5 mg/mL with E. coli ATCC 25922; 5 mg/mL with C. albicans ATCC 10231 [7]; 1.25 mg/mL in the data set on S. aureus ATCC 25923 [8]; 1.25 mg/mL against P. aeruginosa ATCC 27853 [9]; 5 mg/mL against E. faecalis ATCC 29212 [10]. Also, the Cell viability result in data set [11] (at corresponding concentrations (comparison with 5-FU), concentration not named) is reported as “below 50%”. In addition, the “Reduction of cell viability” value in data set [11] (at 50 µM and 25 µM, compared to the control) was “approximately 50%”. Further, the viability at 50 µM in [12] (A-431, 50 µM, 24 h, compared to the control, read-out: Cell viability) is around 50%. Also, the IC50 in data set [12] (A-431, 24 h, tested range 3.125 to 50 µM) was around 50 µM.

The values above are taken from PMC12845261, “Design, Synthesis, and Biological Evaluation of N-Acyl-Hydrazone-Linked Quinazolinone Derivatives with Antioxidant, Antimicrobial, and Anticancer Potential” (Pharmaceuticals, 2025).
